Results on seven compounds are retold here after ChEMBL document CHEMBL4482311, “Modulators of Prostate-Specific G-Protein Receptor (PSGR/OR51E2) and Methods of Using Same” (2018).

Activity calls are given as the source filed them. The rule behind the calls is not given here.

For one assay, the target named is T1, Olfactory receptor 51E2 (Homo sapiens, UniProt Q9H255).
T1 sequence (Q9H255 whole entry): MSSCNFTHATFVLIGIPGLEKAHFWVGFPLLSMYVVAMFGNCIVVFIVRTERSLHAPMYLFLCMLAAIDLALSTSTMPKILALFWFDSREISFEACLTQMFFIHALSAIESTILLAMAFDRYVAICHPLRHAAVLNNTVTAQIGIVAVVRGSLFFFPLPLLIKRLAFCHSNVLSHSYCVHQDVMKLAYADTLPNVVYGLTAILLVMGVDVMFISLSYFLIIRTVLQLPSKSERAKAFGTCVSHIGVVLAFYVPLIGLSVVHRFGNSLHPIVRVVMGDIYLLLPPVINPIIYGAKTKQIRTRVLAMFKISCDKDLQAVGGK
Kind of assay: Agonist activity at PSGR/OR51E2 (unknown origin) expressed in human Hana3A cells co-transfected with CRE-Luc by luciferase reporter gene assay. The format is functional, cell-based.

Assay [1] concerns the target T2, Olfactory receptor 51E2 (Homo sapiens) (UniProt Q9H255).
T2 sequence (whole entry): T1 sequence (Q9H255 whole entry)
As to the kind of experiment: Agonist activity at PSGR/OR51E2 (unknown origin) expressed in human Hana3A cells co-transfected with CRE-Luc by luciferase reporter gene assay relative to control 1 mM propionic acid. The format is functional, cell-based.

Assay [2] has as its target T2, Olfactory receptor 51E2 (Homo sapiens). Kind of assay: Agonist activity at PSGR/OR51E2 in human LNCaP cells assessed as induction of neuroendocrine trans-differentiation related gene expression by measuring increase in NSE mRNA expression incubated for 12 days by RT-PCR analysis. The format is cell-based.
Assay [3] has the same target. Kind of assay: Agonist activity at PSGR/OR51E2 in human LNCaP cells assessed as induction of change in intracellular metabolites level by measuring malic acid level at 100 nM incubated for 72 hrs by GC/MS analysis. The format is cell-based.
The target is the same in assay [4]. Kind of assay: Agonist activity at PSGR/OR51E2 in human LNCaP cells assessed as induction of change in extracellular metabolites level by measuring 2-ketoleucine level at 100 nM incubated for 72 hrs by GC/MS analysis. The format is cell-based.
Assay [5] shares this target. As to the kind of experiment: Agonist activity at PSGR/OR51E2 in human LNCaP cells assessed as induction of change in extracellular metabolites level by measuring asparagine level at 100 nM incubated for 72 hrs by GC/MS analysis. The format is cell-based.
Assay [6] has the same target. Kind of assay: Agonist activity at PSGR/OR51E2 in human LNCaP cells assessed as induction of change in intracellular metabolites level by measuring tyrosine level at 100 nM incubated for 72 hrs by GC/MS analysis. The format is cell-based.
Assay [7] has the same target. As to the kind of experiment: Agonist activity at PSGR/OR51E2 in human LNCaP cells assessed as induction of change in extracellular metabolites level by measuring beta-alanine level at 100 nM incubated for 72 hrs by GC/MS analysis. The format is cell-based.
Assay [8] has the same target. Kind of assay: Agonist activity at PSGR/OR51E2 in human LNCaP cells assessed as induction of change in extracellular metabolites level by measuring hydroquinone level at 100 nM incubated for 72 hrs by GC/MS analysis. The format is cell-based.
Assay [9] has the same target. As to the kind of experiment: Agonist activity at PSGR/OR51E2 in human LNCaP cells assessed as induction of change in intracellular metabolites level by measuring beta-alanine level at 100 nM incubated for 72 hrs by GC/MS analysis. The format is cell-based.
Assay [10] has the same target. Kind of assay: Agonist activity at PSGR/OR51E2 in human LNCaP cells assessed as induction of change in extracellular metabolites level by measuring hydroxyprolines level at 100 nM incubated for 72 hrs by GC/MS analysis. The format is cell-based.
The target is the same in assay [11]. As to the kind of experiment: Agonist activity at PSGR/OR51E2 in human LNCaP cells assessed as induction of change in intracellular metabolites level by measuring urea level at 100 nM incubated for 72 hrs by GC/MS analysis. The format is cell-based.
Assay [12] has the same target. As to the kind of experiment: Agonist activity at PSGR/OR51E2 in human LNCaP cells assessed as induction of change in intracellular metabolites level by measuring alanine level at 100 nM incubated for 72 hrs by GC/MS analysis. The format is cell-based.
The target is the same in assay [13]. Kind of assay: Agonist activity at PSGR/OR51E2 in human LNCaP cells assessed as induction of change in extracellular metabolites level by measuring succinic acid level at 100 nM incubated for 72 hrs by GC/MS analysis. The format is cell-based.
Assay [14] has the same target. As to the kind of experiment: Agonist activity at PSGR/OR51E2 in human LNCaP cells assessed as induction of change in intracellular metabolites level by measuring guanine level at 100 nM incubated for 72 hrs by GC/MS analysis. The format is cell-based.
For assay [15] the target is unchanged. As to the kind of experiment: Agonist activity at PSGR/OR51E2 in human LNCaP cells assessed as induction of change in intracellular metabolites level by measuring tyramine level at 100 nM incubated for 72 hrs by GC/MS analysis. The format is cell-based.
The target is the same in assay [16]. Kind of assay: Agonist activity at PSGR/OR51E2 in human LNCaP cells assessed as induction of change in extracellular metabolites level by measuring guanine level at 100 nM incubated for 72 hrs by GC/MS analysis. The format is cell-based.
The target is the same in assay [17]. As to the kind of experiment: Agonist activity at PSGR/OR51E2 in human LNCaP cells assessed as induction of change in intracellular metabolites level by measuring pantothenic acid level at 100 nM incubated for 72 hrs by GC/MS analysis. The format is cell-based.
The target is the same in assay [18]. Kind of assay: Agonist activity at PSGR/OR51E2 in human LNCaP cells assessed as induction of neuroendocrine trans-differentiation related gene expression by measuring increase in OR51E2 mRNA expression incubated for 12 days by RT-PCR analysis. The format is cell-based.
For assay [19] the target is unchanged. As to the kind of experiment: Agonist activity at PSGR/OR51E2 in human LNCaP cells assessed as induction of change in intracellular metabolites level by measuring glucose-6-phosphate level at 100 nM incubated for 72 hrs by GC/MS analysis. The format is cell-based.
The target is the same in assay [20]. As to the kind of experiment: Agonist activity at PSGR/OR51E2 in human LNCaP cells assessed as induction of change in intracellular metabolites level by measuring serine level at 100 nM incubated for 72 hrs by GC/MS analysis. The format is cell-based.
Assay [21] has the same target. Kind of assay: Agonist activity at PSGR/OR51E2 in human LNCaP cells assessed as induction of change in extracellular metabolites level by measuring alpha-ketoglutaric acid level at 100 nM incubated for 72 hrs by GC/MS analysis. The format is cell-based.
Assay [22] has the same target. Kind of assay: Agonist activity at PSGR/OR51E2 in human LNCaP cells assessed as induction of change in extracellular metabolites level by measuring n-acetylaspartic acid level at 100 nM incubated for 72 hrs by GC/MS analysis. The format is cell-based.
Assay [23] shares this target. Kind of assay: Agonist activity at PSGR/OR51E2 in human LNCaP cells assessed as induction of neuroendocrine trans-differentiation related gene expression by measuring increase in AMACR mRNA expression incubated for 12 days by RT-PCR analysis. The format is cell-based.
Assay [24] has the same target. As to the kind of experiment: Agonist activity at PSGR/OR51E2 in human LNCaP cells assessed as induction of change in extracellular metabolites level by measuring urea level at 100 nM incubated for 72 hrs by GC/MS analysis. The format is cell-based.
Assay [25] has the same target. Kind of assay: Agonist activity at PSGR/OR51E2 in human LNCaP cells assessed as induction of change in extracellular metabolites level by measuring 2-deoxyglucose level at 100 nM incubated for 72 hrs by GC/MS analysis. The format is cell-based.
Assay [26] has the same target. Kind of assay: Agonist activity at PSGR/OR51E2 in human LNCaP cells assessed as induction of change in extracellular metabolites level by measuring benzoic-acid level at 100 nM incubated for 72 hrs by GC/MS analysis. The format is cell-based.
Assay [27] has the same target. As to the kind of experiment: Agonist activity at PSGR/OR51E2 in human LNCaP cells assessed as induction of change in intracellular metabolites level by measuring adenosine/inosine level at 100 nM incubated for 72 hrs by GC/MS analysis. The format is cell-based.
Assay [28] shares this target. As to the kind of experiment: Agonist activity at PSGR/OR51E2 in human LNCaP cells assessed as induction of change in intracellular metabolites level by measuring lactic acid level at 100 nM incubated for 72 hrs by GC/MS analysis. The format is cell-based.
The target is the same in assay [29]. Kind of assay: Agonist activity at PSGR/OR51E2 in human LNCaP cells assessed as induction of change in extracellular metabolites level by measuring glutaric acid level at 100 nM incubated for 72 hrs by GC/MS analysis. The format is cell-based.
Assay [30] has the same target. As to the kind of experiment: Agonist activity at PSGR/OR51E2 in human LNCaP cells assessed as induction of change in intracellular metabolites level by measuring fructose-6-phosphate level at 100 nM incubated for 72 hrs by GC/MS analysis. The format is cell-based.
The target is the same in assay [31]. Kind of assay: Agonist activity at PSGR/OR51E2 in human LNCaP cells assessed as induction of change in extracellular metabolites level by measuring glyceric acid level at 100 nM incubated for 72 hrs by GC/MS analysis. The format is cell-based.
The target is the same in assay [32]. Kind of assay: Agonist activity at PSGR/OR51E2 in human LNCaP cells assessed as induction of change in intracellular metabolites level by measuring threonine level at 100 nM incubated for 72 hrs by GC/MS analysis. The format is cell-based.
For assay [33] the target is unchanged. Kind of assay: Agonist activity at PSGR/OR51E2 in human LNCaP cells assessed as induction of change in extracellular metabolites level by measuring cysteine level at 100 nM incubated for 72 hrs by GC/MS analysis. The format is cell-based.
For assay [34] the target is unchanged. Kind of assay: Agonist activity at PSGR/OR51E2 in human LNCaP cells assessed as induction of change in intracellular metabolites level by measuring fumaric acid level at 100 nM incubated for 72 hrs by GC/MS analysis. The format is cell-based.

As for `Nc1nc2[nH]c(O)nc2c(=O)[nH]1`, the EC50 on Olfactory receptor 51E2 amounted to 0.00044 nM.

In the case of `O=C1CN=CN1`, the Ratio in assay [1] was 0.678.

Take H-RPPGFSPFR-OH [BRADYKININ]: at Olfactory receptor 51E2, the EC50 worked out at 1.3 nM.

In the case of H-RPPGFSPFR-OH, the Ratio in assay [1] was determined as 0.762.

Consider `C[C@]12CC[C@H]3[C@@H](CCC4=CC(=O)CC[C@@]43CO)[C@@H]1CCC2=O`, for which the result in [2], in [3], in [4], in assay [5], in assay [6] and in assay [7] was Active. Also, the result in assay [8], in [9], in [10], in [11], in assay [12] and in assay [13] was Active. Besides, the result in assay [14], in assay [15], in assay [16], in [17], in assay [18] and in [19] was Active. In addition, the result in assay [20], in assay [21], in [22], in assay [23], in assay [24] and in assay [25] was Active. The outcome in assay [26], in assay [27], in assay [28], in assay [29], in assay [30] and in assay [31] was Active. For the same compound, the result in assay [32], in assay [33] and in assay [34] was Active.

On to `COc1cc(CCC(=O)CC(=O)CCc2ccc(O)c(OC)c2)ccc1O`, for which, in assay [1], the Ratio is 0.284.

With `Oc1ccc(-c2[o+]c3cc(O)cc(O)c3cc2O)cc1`, the Ratio in assay [1] worked out at 0.621.
